The source of these data is ChEMBL document CHEMBL4308923, “Identification of Human Toll-like Receptor 2-Agonistic Activity in Dihydropyridine-Quinolone Carboxamides” (ACS Med Chem Lett, 2019).

For orientation: EC50 means the concentration giving half of the maximal effect.

The source made the active and inactive calls. The calls are words filed in the database; no cut-off is given here.

Common to all, as to format: cell-based
The target of experiment [1] is T1, Toll-like receptor 2 (Homo sapiens, UniProt O60603). The experiment can be described thus: Agonist activity at human TLR2 expressed in HEK-Blue cells harboring NFkB promoter-driven secreted alkaline phosphatase assessed as induction of NFkB after 12 hrs by spectrophotometric assay.
Experiment [2] concerns the target T1, Toll-like receptor 2. Kind of experiment: Agonist activity at human TLR2 expressed in human THP1-Blue cells harboring NFkB promoter-driven secreted alkaline phosphatase assessed as induction of NFkB after 12 hrs co-treated with PAM2CSK4 by spectrophotometric assay.
Experiment [3] concerns the target T1, Toll-like receptor 2. The experiment can be described thus: Agonist activity at human TLR2 expressed in HEK cells assessed as induction of MCP1 by ELISA. A general note: ELISA stands for enzyme-linked immunosorbent assay.
For experiment [4], the target named is T1, Toll-like receptor 2. The experiment can be described thus: Agonist activity at human TLR2 expressed in HEK cells assessed as induction of MIP1alpha level.
The target of experiment [5] is T1, Toll-like receptor 2. The experiment can be described thus: Agonist activity at human TLR2 expressed in HEK cells assessed as induction of MIP1beta level.

T1 sequence (O60603 whole entry): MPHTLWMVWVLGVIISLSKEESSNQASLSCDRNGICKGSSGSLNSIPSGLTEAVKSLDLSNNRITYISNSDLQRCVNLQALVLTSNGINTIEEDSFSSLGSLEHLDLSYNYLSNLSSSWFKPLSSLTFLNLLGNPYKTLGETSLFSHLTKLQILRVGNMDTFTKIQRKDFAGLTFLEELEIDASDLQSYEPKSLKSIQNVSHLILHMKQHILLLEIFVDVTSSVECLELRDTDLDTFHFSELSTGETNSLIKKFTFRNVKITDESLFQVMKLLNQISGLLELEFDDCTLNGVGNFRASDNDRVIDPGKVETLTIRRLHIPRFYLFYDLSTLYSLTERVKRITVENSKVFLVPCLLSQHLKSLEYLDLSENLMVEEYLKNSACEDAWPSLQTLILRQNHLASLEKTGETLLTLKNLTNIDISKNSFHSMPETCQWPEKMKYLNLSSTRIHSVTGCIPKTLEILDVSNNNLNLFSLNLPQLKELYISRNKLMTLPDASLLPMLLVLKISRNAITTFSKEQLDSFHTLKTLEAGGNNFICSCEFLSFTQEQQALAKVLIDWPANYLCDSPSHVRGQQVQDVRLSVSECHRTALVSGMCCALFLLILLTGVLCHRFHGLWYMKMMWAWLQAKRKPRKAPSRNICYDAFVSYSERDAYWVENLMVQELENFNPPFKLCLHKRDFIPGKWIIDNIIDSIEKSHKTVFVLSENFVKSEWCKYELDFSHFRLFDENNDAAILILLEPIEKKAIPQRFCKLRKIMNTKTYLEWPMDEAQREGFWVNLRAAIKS

As for `Cc1ccc(S(=O)(=O)N2CCC[C@H]2C(=O)N2c3ccc(F)cc3CC[C@@H]2C)cc1`, at Toll-like receptor 2 [1], the result was Active. In the case of `C[C@@H]1CCc2cc(F)cc3c(O)c(C(=O)NCc4cccnc4)c(=O)n1c23`, the result on Toll-like receptor 2 [1] was Active. On the same count and under the same terms, the value for `CC1CCc2cc(F)cc3c(O)c(C(=O)NCC4CCNCC4)c(=O)n1c23` (configuration not stated) was “inactive”; that for `CC1CCc2cc(F)cc3c(O)c(C(=O)NCc4cccc(C(N)=O)c4)c(=O)n1c23` (configuration not stated) was “inactive”; that for `CC1CCc2cc(F)cc3c(O)c(C(=O)NCc4cnc5ccccc5c4)c(=O)n1c23` (configuration not stated) was “inactive”. The same measure, in the same setting: for `C[C@@H]1CCc2cc(F)ccc2N1` the value was “Active”.

As to `C[C@H]1CCc2cc(F)cc3c(O)c(C(=O)NCc4ccc(N)nc4)c(=O)n1c23`, the result at Toll-like receptor 2 [2], at Toll-like receptor 2 [3], at Toll-like receptor 2 [1], on Toll-like receptor 2 [4] and at Toll-like receptor 2 [5] was Active. For `CC1CCc2cc(F)cc3c(O)c(C(=O)NCC4CCCN(C)C4)c(=O)n1c23` (configuration not stated), the result at Toll-like receptor 2 [1] was inactive. Same read-out and setting: the value for `CC1CCc2cc(F)cc3c(O)c(C(=O)NCc4ccnnc4)c(=O)n1c23` (configuration not stated) was “inactive”.

Regarding `CC1CCc2cc(F)cc3c(O)c(C(=O)NCCc4cccnc4)c(=O)n1c23` (configuration not stated), the figures for the EC50 on Toll-like receptor 2 [3] and on Toll-like receptor 2 [1] were 1860 nM and 1350 nM, respectively. The corresponding values for `CC1CCc2cc(F)cc3c(O)c(C(=O)NCc4cccnc4)c(=O)n1c23` (configuration not stated) are 1350 nM and 300 nM. With `CC1CCc2cc(F)cc3c(O)c(C(=O)NCc4cc5ccccc5[nH]4)c(=O)n1c23` (configuration not stated), the outcome at Toll-like receptor 2 [1] was inactive. The same measure, in the same setting: for `C[C@H]1CCc2cc(F)ccc2N1` the value was “Active”.

Turning to `CC1CCc2cc(F)cc3c(O)c(C(=O)NCc4ccc(N)nc4)c(=O)n1c23` (configuration not stated), the EC50 at Toll-like receptor 2 [3] turned out to be 7560 nM; at Toll-like receptor 2 [1] it was 320 nM.

For `CC1CCc2cc(F)cc3c(O)c(C(=O)Nc4cccnc4)c(=O)n1c23` (configuration not stated), at Toll-like receptor 2 [1], the outcome was inactive. Still for that read-out and setting: for `CC1CCc2cc(F)cc3c(O)c(C(=O)NCc4ccc5[nH]ccc5c4)c(=O)n1c23` (configuration not stated) the value was “inactive”. The same measure, in the same setting: for `CC1CCc2cc(F)cc3c(O)c(C(=O)NCC4CNCCO4)c(=O)n1c23` (configuration not stated) the value was “inactive”; for `CC1CCc2cc(F)cc3c(O)c(C(=O)NCc4cccnn4)c(=O)n1c23` (configuration not stated), “inactive”; for `CC1CCc2cc(F)cc3c(O)c(C(=O)NCc4cccc5cc[nH]c45)c(=O)n1c23` (configuration not stated), “inactive”. In the case of `CC1CCc2cc(F)cc3c(O)c(C(=O)NCc4ccc5c(c4)OCCO5)c(=O)n1c23` (configuration not stated), on Toll-like receptor 2 [1], the outcome was inactive. Still for that read-out and setting: for `CC1CCc2cc(F)cc3c(O)c(C(=O)NCc4ccccn4)c(=O)n1c23` (configuration not stated) the value was “inactive”. The same measure, in the same setting: the value for `Cc1cc(CNC(=O)c2c(O)c3cc(F)cc4c3n(c2=O)C(C)CC4)no1` (configuration not stated) was “inactive”.

Consider `C[C@H]1CCc2cc(F)cc3c(O)c(C(=O)NCc4cncc(F)c4)c(=O)n1c23`, for which the result on Toll-like receptor 2 [2], at Toll-like receptor 2 [3], at Toll-like receptor 2 [1], at Toll-like receptor 2 [4] and at Toll-like receptor 2 [5] was Active. For the compound `Cc1nn(C)cc1CNC(=O)c1c(O)c2cc(F)cc3c2n(c1=O)C(C)CC3` (configuration not stated), at Toll-like receptor 2 [1], the outcome was inactive. Take `CC1CCc2cc(F)cc3c(O)c(C(=O)NCc4cccnc4N(C)C)c(=O)n1c23` (configuration not stated): the figures for the EC50 at Toll-like receptor 2 [3] and at Toll-like receptor 2 [1] were 3090 nM and 3200 nM, respectively.

Regarding `CC1CCc2cc(F)cc3c(O)c(C(=O)NCC4CCOC4)c(=O)n1c23` (configuration not stated), at Toll-like receptor 2 [1], the result was inactive.

Turning to `CC1CCc2cc(F)cc3c(O)c(C(=O)NCc4cccc5[nH]ccc45)c(=O)n1c23` (configuration not stated), the result at Toll-like receptor 2 [1] was inactive. Consider `CC1CCc2cc(F)cc3c(O)c(C(=O)NCc4nc5ccccc5[nH]4)c(=O)n1c23` (configuration not stated), for which, at Toll-like receptor 2 [1], the outcome was inactive. In the case of `CC1CCc2cc(F)cc3c(O)c(C(=O)NCc4n[nH]c5ccccc45)c(=O)n1c23` (configuration not stated), the result on Toll-like receptor 2 [1] was inactive. On the same count and under the same terms, the value for `CC1CCc2cc(F)cc3c(O)c(C(=O)NCC4CCCCN4)c(=O)n1c23` (configuration not stated) was “inactive”. As for `CC1CCc2cc(F)cc3c(O)c(C(=O)NCc4ccnn4C)c(=O)n1c23` (configuration not stated), at Toll-like receptor 2 [1], the outcome was inactive. For `CC1CCc2cc(F)cc3c(O)c(C(=O)NCc4ccncc4)c(=O)n1c23` (configuration not stated), the outcome at Toll-like receptor 2 [1] was inactive. Take `COc1cc(CNC(=O)c2c(O)c3cc(F)cc4c3n(c2=O)C(C)CC4)ccn1` (configuration not stated): the outcome on Toll-like receptor 2 [1] was inactive. In the case of `Cc1ccncc1CNC(=O)c1c(O)c2cc(F)cc3c2n(c1=O)C(C)CC3` (configuration not stated), the half-maximal effective concentration (EC50) on Toll-like receptor 2 [1] stood at 1450 nM. For `CC1CCc2cc(F)cc3c(O)c(C(=O)NCc4nccn4C)c(=O)n1c23` (configuration not stated), the result on Toll-like receptor 2 [1] was inactive.

In the case of `CC1CCc2cc(F)cc3c(O)c(C(=O)NCCn4ccnc4)c(=O)n1c23` (configuration not stated), at Toll-like receptor 2 [1], the result was inactive. Turning to `CC1CCc2cc(F)cc3c(O)c(C(=O)NCc4ccnc5[nH]ccc45)c(=O)n1c23` (configuration not stated), the outcome on Toll-like receptor 2 [1] was inactive. `CC1CCc2cc(F)cc3c(O)c(C(=O)NCc4cccs4)c(=O)n1c23` (configuration not stated): the outcome on Toll-like receptor 2 [1] was inactive. For `CC1CCc2cc(F)cc3c(O)c(C(=O)NCC4CCCNC4)c(=O)n1c23` (configuration not stated), the outcome at Toll-like receptor 2 [1] was inactive. On to `CC1CCc2cc(F)cc3c(O)c(C(=O)NCc4cncc(F)c4)c(=O)n1c23` (configuration not stated), for which the EC50 at Toll-like receptor 2 [3] is 4520 nM; at Toll-like receptor 2 [1] it was 1000 nM. With `Cc1nnc(CNC(=O)c2c(O)c3cc(F)cc4c3n(c2=O)C(C)CC4)o1` (configuration not stated), the outcome at Toll-like receptor 2 [1] was inactive. As for `CC1CCc2cc(F)cc3c(O)c(C(=O)NC4CCc5ncccc54)c(=O)n1c23` (configuration not stated), the EC50 at Toll-like receptor 2 [1] is 3000 nM. In the case of `CC1CCc2cc(F)cc3c(O)c(C(=O)NCC4CCN(C)C4)c(=O)n1c23` (configuration not stated), the outcome on Toll-like receptor 2 [1] was inactive. On the same count and under the same terms, for `CC1CCc2cc(F)cc3c(O)c(C(=O)NCc4ccno4)c(=O)n1c23` (configuration not stated) the value was “inactive”; for `C[C@@H]1CCc2cc(F)cc3c(O)c(C(=O)NCc4ccc(N)nc4)c(=O)n1c23`, “Active”; for `Cc1ccc(S(=O)(=O)N2CCC[C@H]2C(=O)N2c3ccc(F)cc3CC[C@H]2C)cc1`, “Active”. Take `CC1CCc2cc(F)cc3c(O)c(C(=O)NCc4nc5ccccc5n4C)c(=O)n1c23` (configuration not stated): the outcome on Toll-like receptor 2 [1] was inactive. Consider `CC1CCc2cc(F)cc3c(O)c(C(=O)NCc4ccc(Cl)nc4)c(=O)n1c23` (configuration not stated), for which the EC50 on Toll-like receptor 2 [1] was 5000 nM. Take `CC1CCc2cc(F)cc3c(O)c(C(=O)NCc4ccc(N(C)C)nc4)c(=O)n1c23` (configuration not stated): the outcome on Toll-like receptor 2 [1] was inactive. On the same count and under the same terms, for `CC1CCc2cc(F)cc3c(O)c(C(=O)NCc4cnn(C)c4)c(=O)n1c23` (configuration not stated) the value was “inactive”. As to `CC1CCc2cc(F)cc3c(O)c(C(=O)NCc4ccsc4)c(=O)n1c23` (configuration not stated), the outcome at Toll-like receptor 2 [1] was inactive.

As for `C[C@H]1CCc2cc(F)cc3c(O)c(C(=O)NCc4cccnc4)c(=O)n1c23`, the outcome on Toll-like receptor 2 [2], at Toll-like receptor 2 [3], at Toll-like receptor 2 [1], at Toll-like receptor 2 [4] and on Toll-like receptor 2 [5] was Active. Consider `CC1CCc2cc(F)cc3c(O)c(C(=O)NCc4ccc5c(c4)OCO5)c(=O)n1c23` (configuration not stated), for which the outcome on Toll-like receptor 2 [1] was inactive. For `CC1CCc2cc(F)cc3c(O)c(C(=O)NCc4cccc5ncccc45)c(=O)n1c23` (configuration not stated), the result at Toll-like receptor 2 [1] was inactive.

Turning to `CC1CCc2cc(F)cc3c(O)c(C(=O)NCc4cncnc4)c(=O)n1c23` (configuration not stated), the outcome at Toll-like receptor 2 [1] was inactive.
